The values below come from patent publication US11466298B2, “Method for preparing phosphorylated keto polyols, derivatives thereof and uses thereof” (COMMISSARIAT A L'ENERGIE ATOMIQUE ET AUX ENERGIES …, priority 2017, dated 2022).

Assay [1] has as its system enzymes of SEQ ID NO:1-10 (RhaD). Nature of the assay: LC/MS Orbitrap validation of products from 6 ketones, RhaD enzymes. It counts as biochemical. The note with it: 5 to 10 eq of ketone, CoCl2, pH 7.3, 5 h at RT, LC/MS detection. As to the method: (§1) A mother solution was prepared by mixing DHAP (5.2 mL, 35 mM), CoCl2 (200 μL, 10 mM), 5 to 10 eq of ketone, adjusted to pH 7.3 and degased under Ar. In 10 vials containing each 4 mg of enzyme to screen (beforehand degased under Ar) were added 400 μL of the mother solution. The reactions were gently stirred for 5 h at RT. The aldolase was removed by filtration over ultra-centrifugal filter unit (Amicon, 10 kDa). The reaction medium was analyzed by mass spectrometry.
(§2) The detection of the compounds of interest was performed by LC/ESI-MS method using a Dionex TCC-3000RS chromatographic system (Thermo Fisher Scientific, Courtaboeuf, France) coupled to an ultra-high resolution Orbitrap Elite hybrid mass spectrometer ((Thermo Fisher Scientific, Courtaboeuf, France) equipped with a HESI source.
(§3) A Sequant ZICpHILIC column […], 2.1×100 mm (Merck, Darmstadt, Germany) thermostated at 15° C. was employed for HPLC separation. Mobile phase flow rate was set at 0.2 ml/min, and injection volume was 5 μl. Aqueous solution of 10 mM (NH4)2CO3 (at a pH of 9.9 adjusted by NH4OH) was used as phase A and acetonitrile was used as solvent B. The following gradient conditions were applied for elution: 1 min equilibration step at 80% of phase B; 7 min linear gradient from 80 to 40% of phase B; 3 min isocratic elution at 40% of B, return to 80% of phase B in 3 min and a reconditioning step of 8.5 min.
(§4) Mass and product ion spectra were recorded in the ESI negative ion mode. Ion spray (IS) was set at −4.5 kV and capillary temperature at 275° C. Sheath gas, auxiliary gas and sweep gas flow rates were set at 60, 10 and 0 arbitrary units, respectively. The mass resolution power of the detector was 60000.
(§5) Raw data were manually inspected using the Qual-browser module of Xcalibur version 2.2 (Thermo Fisher Scientific, Courtaboeuf, France) for enzymes from SEQ ID NO:1 to 20 and SEQ ID NO:23 for DHAP+dihydroxyacetone, and for SEQ ID NO:1 to 10 for the other couples of reagents.

For assay [2], the target named is T1, aldolase (SEQ ID NO: 10), RhaD aldolase (Bacteroides thetaiotaomicron, UniProt Q8A1A0).
T1 construct: made in house
The assay can be described thus: Screening of ketones as acceptors with DHAP as donor, DHAP disappearance assay plus mass spectrometry. The note with it: for DHAP disappearance (%): 10 eq of ketone, 8 μmol DHAP, CoCl2, pH 7.5, RT, 5 h, under Ar; for acceptor of the enzyme when DHAP is the donor: SEQ ID NO: 10. It is filed as biochemical. As for the experimental part:
Enzyme corresponding to SEQ ID No 10 was purified for deeper characterization and a scale up was performed to analyze the new branched sugars. This aldolase was tested with DHAP as donor and various ketones under argon conditions to avoid oxidation of DHAP and cobalt ion (CoCl2) to optimize the activity. Conversion of the various reactions was determined by assaying DHAP disappearance using triose-phosphate-isomerase coupled with ca-glycerophosphate dehydrogenase enzymes. In addition the products of those reactions were analyzed by mass spectrometry. When the data from the two systems are in agreement, the compound is considered to be substrate of the enzyme.
Prior to the reaction, all the solutions and solids were degased by bubbling or circulating Ar. Under an Ar atmosphere, 1 mg of aldolase (SEQ ID NO: 10, 6.5 U), 8 μmol of DHAP (123 μL of 65 mM solution), 8 μL CoCl2 (10 mM), 10 eq of electrophile (selected ketone) and water to reach 200 μL final volume were added in a vial. The pH was adjusted to 7.5. The reaction mixture was gently stirred at RT for 5 h. DHAP disappearance was followed spectrophotometrically. The aldolase was removed by filtration over ultra-centrifugal filter unit (Amicon, 10 kDa). The reaction medium was directly analyzed by mass spectrometry (liquid chromatography (Alliance 2695—Waters) coupled to high resolution mass spectrometry (Micromass Q-TOF—Waters)).

Another assay relates to SEQ ID: 23 (FucA). Nature of the assay: LC/MS Orbitrap validation of products from 6 ketones, FucA enzyme. The following applies: 5 to 10 eq of ketone, CoCl2, pH 7.3, 5 h at RT, LC/MS detection. It counts as biochemical, Kyrpidia tusciae. As for the experimental part:
as §1, §2, §3, §4, §5

The target of assay [3] is RhaD of various microorganisms including E. coli (Escherichia coli, UniProt P32169). The assay can be described thus: Substrate spectrum of RhaD aldolases with respect to ketones. It is filed as biochemical.
Assay [4] has as its system RhaD aldolases of SEQ ID NO:1 to SEQ ID NO:21. The assay can be described thus: Aldol reaction of DHAP with dihydroxyacetone (DHA), RhaD aldolases. The note with it: 10 eq of DHA, CoCl2, pH 7.5, RT, 5 h. It counts as biochemical. As to the method: (§6) Aldolases were tested with DHAP as donor and DHA as acceptor. Cobalt ion (CoCl2) to was added to optimize the activity. Conversion of the reactions was determined by assaying DHAP disappearance using triose-phosphate-isomerase coupled with α-glycerophosphate dehydrogenase enzymes. In addition the products of those reactions were analyzed by mass spectrometry. When the data from the two systems are in agreement, DHA is considered to be substrate of the enzyme.
(§7) 1 mg of aldolase (RhaD, FucA or TagA), 8 μmol of DHAP (123 μL of 65 mM solution), 8 μL CoCl2 (10 mM), 10 eq of DHA and water to reach 200 μL final volume were added in a vial. The pH was adjusted to 7.5. The reaction mixture was gently stirred at RT for 5 h. DHAP disappearance was followed spectrophotometrically. The aldolase was removed by filtration over ultra-centrifugal filter unit (Amicon, 10 kDa). The reaction medium was directly analyzed by mass spectrometry (liquid chromatography (Alliance 2695—Waters) coupled to high resolution mass spectrometry (Micromass Q-TOF—Waters)).

In assay [5] the target is T2, L-tagatose 1.6 biP aldolase (TagA) of SEQ ID NO:35 (Escherichia coli, UniProt P0AB74).
T2 construct: made in house
The assay can be described thus: Aldol reaction of DHAP with dihydroxyacetone (DHA), TagA aldolase. The following applies: 10 eq of DHA, CoCl2, pH 7.5, RT, 5 h. It counts as biochemical. As for the experimental part: as §6, §7

Assay [6] has as its system L-fuculose-1-phosphate aldolase (FucA) of SEQ ID NO:22-23, and 26-34. The assay can be described thus: Aldol reaction of DHAP with dihydroxyacetone (DHA), FucA aldolases. It counts as biochemical. The note with it: 10 eq of DHA, CoCl2, pH 7.5, RT, 5 h. As for the experimental part: as §6, §7
Assay [7] deals with DHA aldolases (i.e. FSA of E. coli), deoc aldolase, class I DHAP aldolases and pyruvate aldolases. Nature of the assay: Aldol reaction of DHAP with DHA, aldolases not belonging to class II DHAP aldolases. It counts as biochemical. The note with it: data not shown.

RhaD of various microorganisms including E. coli, sequence (P32169 whole entry): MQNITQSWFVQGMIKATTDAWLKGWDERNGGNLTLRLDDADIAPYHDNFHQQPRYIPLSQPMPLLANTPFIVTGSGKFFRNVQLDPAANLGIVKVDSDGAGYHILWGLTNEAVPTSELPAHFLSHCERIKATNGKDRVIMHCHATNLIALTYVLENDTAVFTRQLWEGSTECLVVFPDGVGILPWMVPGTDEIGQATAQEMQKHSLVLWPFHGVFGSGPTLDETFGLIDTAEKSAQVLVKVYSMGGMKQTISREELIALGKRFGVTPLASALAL
T1 sequence (Q8A1A0 whole entry, change not shown): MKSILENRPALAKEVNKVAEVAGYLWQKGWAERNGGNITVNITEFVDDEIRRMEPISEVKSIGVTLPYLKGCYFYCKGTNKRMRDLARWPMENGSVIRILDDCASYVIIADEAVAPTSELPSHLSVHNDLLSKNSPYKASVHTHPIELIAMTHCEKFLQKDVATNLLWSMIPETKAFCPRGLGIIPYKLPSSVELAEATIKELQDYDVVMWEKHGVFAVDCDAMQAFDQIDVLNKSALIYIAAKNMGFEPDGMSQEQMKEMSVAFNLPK
T2 sequence (P0AB74 whole entry): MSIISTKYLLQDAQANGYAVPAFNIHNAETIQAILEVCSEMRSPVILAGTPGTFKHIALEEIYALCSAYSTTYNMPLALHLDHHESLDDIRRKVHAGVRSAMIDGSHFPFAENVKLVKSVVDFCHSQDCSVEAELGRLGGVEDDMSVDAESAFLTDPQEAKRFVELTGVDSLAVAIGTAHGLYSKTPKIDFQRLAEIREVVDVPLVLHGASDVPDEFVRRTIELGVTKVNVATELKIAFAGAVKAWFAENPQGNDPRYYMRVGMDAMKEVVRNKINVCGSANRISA

As to `CC(=O)C(C)=O` [butanedione], the “ability of the tested RhaD to catalyze the reaction of DHAP with the ketone to form the expected product” value (“ability of the tested RhaD” for short) in assay [1] is recorded as “able to catalyze”. Moreover, in assay [2], the “DHAP disappearance (%)” value was 100%. For the same compound, in the assay with SEQ ID: 23 (FucA), the “ability of the tested FucA to catalyze the reaction of DHAP with the ketone to form the expected product” value (from here on “ability of the tested FucA”) was “able to catalyze”.

Turning to acetone, in assay [3], the “ability of RhaD to catalyze the reaction of DHAP with the ketone” value (from here on “ability of RhaD”) is listed as “unable to catalyze”. Besides, in assay [2], the “DHAP disappearance (%)” value was found to be 0% and the “acceptor of the enzyme when DHAP is the donor” value (from here on “acceptor of the enzyme”) is “not acceptors”.

As for `O=C(CO)[C@@H](O)CO` [L-erythrulose], the “ability of the tested RhaD” value in assay [1] is reported as “able to catalyze”. Also, the “DHAP disappearance (%)” value in assay [2] is on record as 100%. In addition, the “ability of the tested FucA” value in the assay on SEQ ID: 23 (FucA) is given as “able to catalyze”.

Regarding `O=C(CO)CO` [dihydroxyacetone], the “ability of the enzymes to catalyse the reaction between DHAP and DHA” value is “able to catalyse” in assay [4] and “same results” in assay [6]. In addition, in assay [1], the “ability of the tested RhaD” value was “able to catalyze”. Also, in assay [2], the “DHAP disappearance (%)” value is 100%. Besides, the “ability of the tested FucA” value in the assay with SEQ ID: 23 (FucA) is listed as “able to catalyze”. Also, the “ability of the enzyme to catalyse the reaction between DHAP and DHA” value in assay [5] is on record as “same results”. Also, the “ability of the enzymes to catalyse the reaction between DHA and DHAP” value in assay [7] is on record as “failed to catalyze”.

Take `O=C(CO)Cc1ccccc1`: in assay [2], the “DHAP disappearance (%)” value is listed as 71%.

Take `CC(=O)C(=O)O`: the “DHAP disappearance (%)” value in assay [2] is on record as 75%.

With `CC(=O)CCO` [4-hydroxybutan-2-one], the “acceptor of the enzyme” value in assay [2] was “not acceptors”.

On to `O=C1CCCC1` [cyclopentanone], for which, in assay [3], the “ability of RhaD” value is recorded as “unable to catalyze”. In addition, in assay [2], the “DHAP disappearance (%)” value turned out to be 0% and the “acceptor of the enzyme” value was “not acceptors”.

On to `O=C(CCl)CCl`, for which the “DHAP disappearance (%)” value in assay [2] was determined as 72%.

In the case of hydroxyacetone, the “ability of the tested RhaD” value in assay [1] is “able to catalyze”. Besides, in assay [2], the “DHAP disappearance (%)” value came out at 95%. For the same compound, the “ability of the tested FucA” value in the assay on SEQ ID: 23 (FucA) is listed as “able to catalyze”.

`CC(=O)C(C)O` (stereo not drawn): in assay [2], the “DHAP disappearance (%)” value came out at 96%.

Take `O=C1CCCCC1O` (stereo not drawn) [2-hydroxycyclohexanone]: the “ability of the tested RhaD” value in assay [1] was “able to catalyze”. In assay [2], the “DHAP disappearance (%)” value was 84%. The “ability of the tested FucA” value in the assay with SEQ ID: 23 (FucA) is on record as “able to catalyze”.

Regarding `O=C(O)C(=O)CO` [hydroxypyruvate], the “ability of the tested RhaD” value in assay [1] is “able to catalyze”. The “DHAP disappearance (%)” value in assay [2] worked out at 92%. Moreover, in the assay on SEQ ID: 23 (FucA), the “ability of the tested FucA” value is given as “able to catalyze”.

Turning to `CC(=O)CCO` [drawing 99], in assay [2], the “DHAP disappearance (%)” value was determined as 0%.

Consider `CC(=O)CC(C)=O`, for which the “DHAP disappearance (%)” value in assay [2] amounted to 83%.

With `CCC(=O)CO` [1-hydroxybutanone], the “DHAP disappearance (%)” value in assay [2] amounted to 84%.

butanone: in assay [3], the “ability of RhaD” value is “unable to catalyze”. For the same compound, in assay [2], the “DHAP disappearance (%)” value is on record as 0% and the “acceptor of the enzyme” value is “not acceptors”.
